Like-named read-outs stand apart in the source and are kept apart here.
Tests used:
[1] = molecular target: T1, human RNR (Homo sapiens, UniProt P23921); test: C-terminal RRM2 peptide added to the enzyme in vitro; format: biochemical; conditions: added in vitro at a ratio of 10:1 (peptide:enzyme)
T1 sequence (P23921 1-792): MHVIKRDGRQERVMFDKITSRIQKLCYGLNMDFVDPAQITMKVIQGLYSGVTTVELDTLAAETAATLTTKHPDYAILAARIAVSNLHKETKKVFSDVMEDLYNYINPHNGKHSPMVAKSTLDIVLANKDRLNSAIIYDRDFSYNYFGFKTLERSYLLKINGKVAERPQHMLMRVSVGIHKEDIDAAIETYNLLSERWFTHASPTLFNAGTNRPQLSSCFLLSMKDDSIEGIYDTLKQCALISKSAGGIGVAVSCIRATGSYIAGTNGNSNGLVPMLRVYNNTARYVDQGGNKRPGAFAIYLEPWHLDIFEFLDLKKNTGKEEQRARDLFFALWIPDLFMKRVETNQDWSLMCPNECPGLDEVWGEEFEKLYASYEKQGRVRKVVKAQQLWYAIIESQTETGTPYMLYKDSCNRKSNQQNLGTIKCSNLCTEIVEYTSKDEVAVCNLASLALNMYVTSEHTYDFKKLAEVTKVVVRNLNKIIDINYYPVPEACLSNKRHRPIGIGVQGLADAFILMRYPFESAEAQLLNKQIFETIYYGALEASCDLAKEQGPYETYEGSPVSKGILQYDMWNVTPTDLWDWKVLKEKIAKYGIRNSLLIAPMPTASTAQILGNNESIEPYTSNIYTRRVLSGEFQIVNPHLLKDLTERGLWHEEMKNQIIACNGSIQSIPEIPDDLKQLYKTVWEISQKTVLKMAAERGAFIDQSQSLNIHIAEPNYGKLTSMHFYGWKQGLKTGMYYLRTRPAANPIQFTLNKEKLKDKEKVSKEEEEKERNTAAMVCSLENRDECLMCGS
Excerpt: Also within the scope of this invention is a pharmaceutical composition that contains (1) an active agent, e.g., one of the above-descried antibodies, RNR mutant subunits, RNAi agents, or compounds identified to be RNR inhibitors; and (2) a pharmaceutically acceptable carrier and. Other active agents that can be used include an antisense oligonucleotide and a peptide or polypeptide containing an amino acid sequence at the C-terminus of RRM2. […] It was further observed that a truncated form of the M2 subunit, lacking these 7 amino acids at the C-terminus, fails to form a complex with the corresponding large subunit M1. […] Such peptides or polypeptides can be generated and used according to the methods described above or any other methods well known in the art. The efficacy of the pharmaceutical composition for treating a cell proliferation-associated disorder can be preliminarily evaluated in vitro. For in vivo studies, the composition can be injected into an animal and its therapeutic effects are then accessed.

[2] = tested on: RNR containing hRRM2 or p53R2; test: In vitro RNR activity assay, both reconstituted RNRs compared (average, selective index, comparison in words); format: biochemical, human; conditions: for Selective index: M2/M1 versus p53R2/M1
Method: (§1) To reconstitute an active RNR, three 6′His-tag human RNR subunit proteins (hRRM2, p53R2, and hRRM1) were prokaryotically expressed, purified using Ni-resin affinity chromatography, and stored in 50 mM Tris-HCl, pH 7.4, 100 mM KCl at −70° C. according to standard techniques. The purified proteins were subjected to SDS-PAGE analysis. […] To reconstitute RNR, 1 μM of hRRM2 or p53R2 protein was incubated with 0.5 μM hRRM1 protein in multiple-well plates. The reconstitute RNR was tested for RNR activity according to standard techniques.
(§2) Each compound of various concentration was mixed with the purified hRRM2 and hRRM1, or p53R2 and hRRM1 at room temperature for 30 minutes. An enzymatic reaction buffer was then added to the mixture to reach a final volume of 100 μl and incubated at 37° C. for 30 minutes. The reaction buffer contained […] [^3H] CDP, 50 mM HEPES pH 7.2,6 mM DTT, 4 mM MgOAC, 2 mM ATP, 0.05 mM CDP, 100 mM KCl, and 0.24 mM NADPH. […] FeCl3 could be added to the buffer as an iron source. After dephosphorylation, the supernatant of each reaction mixture was analyzed by an HPLC-connected radioactivity detector. IC50 values were calculated by the non-linear regression equations: f (x)=(a-d)/[1+(x/c)^b]+d.
(§3) The above-described four SB-HSCs were tested for their inhibitory potency and subunit-selectivity by the in vitro RNR assay in the same manner descried above. The dose-dependent inhibition curves were found.

[3] = molecular target: T2, M2/M1 (hRRM2 and hRRM1 reconstituted RNR) (Homo sapiens, UniProt P31350); test: In vitro RNR activity assay with reconstituted hRRM2/hRRM1 ([3H]CDP reduction); format: biochemical; conditions: read-out: In vitro RR activity (IC50 ± sd) M2/M1
T2 construct: 6xHis; made in house
T2 sequence (P31350 1-389): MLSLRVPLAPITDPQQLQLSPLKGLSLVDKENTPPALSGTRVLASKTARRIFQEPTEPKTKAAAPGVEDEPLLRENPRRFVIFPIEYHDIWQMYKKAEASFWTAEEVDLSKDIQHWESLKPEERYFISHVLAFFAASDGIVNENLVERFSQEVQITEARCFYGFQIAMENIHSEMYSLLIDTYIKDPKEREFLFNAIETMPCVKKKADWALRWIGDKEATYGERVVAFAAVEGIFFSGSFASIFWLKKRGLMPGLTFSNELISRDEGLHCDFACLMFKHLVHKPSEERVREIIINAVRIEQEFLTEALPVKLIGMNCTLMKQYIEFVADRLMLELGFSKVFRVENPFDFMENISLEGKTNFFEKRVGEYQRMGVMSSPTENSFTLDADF
Method: as §1, §2

[4] = Standard cell-based assay; conditions: read-out: Cell-based assay (IC50 ± sd)
[5] = molecular target: T3, p53R2/M1 (p53R2 and hRRM1 reconstituted RNR) (Homo sapiens, UniProt Q7LG56); test: In vitro RNR activity assay with reconstituted p53R2/hRRM1 ([3H]CDP reduction); format: biochemical; conditions: read-out: In vitro RR activity (IC50 ± sd) p53R2/M1
T3 construct: 6xHis; made in house
T3 sequence (Q7LG56 1-351): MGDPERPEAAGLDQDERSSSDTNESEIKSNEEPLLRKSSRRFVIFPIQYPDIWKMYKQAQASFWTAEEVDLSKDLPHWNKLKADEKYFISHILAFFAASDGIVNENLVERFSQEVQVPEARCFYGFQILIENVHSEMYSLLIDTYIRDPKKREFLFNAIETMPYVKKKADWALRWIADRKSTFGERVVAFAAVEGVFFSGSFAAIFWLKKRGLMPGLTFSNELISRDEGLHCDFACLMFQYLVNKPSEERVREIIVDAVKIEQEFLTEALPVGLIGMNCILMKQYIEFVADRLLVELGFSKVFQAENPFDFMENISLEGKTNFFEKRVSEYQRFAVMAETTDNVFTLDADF
Method: as §1, §2

[6] = tested on: T4, RNR containing hRRM2 or p53R2; test: In vitro RNR activity assay, both reconstituted RNRs compared (average, selective index, comparison in words); format: biochemical, human; conditions: average of M2/M1 and p53R2/M1, read-out: In vitro RR activity (IC50) Average
T4 construct: In vitro RR activity (IC50) Average; other: compound in 1% DMSO; average of M2/M1 and p53R2/M1; other: compound in 2.5% DMSO; other: compound in dH2O + FeCl3; other: compound in dH2O; Inhi; fused on or other part: 6xHis tag on each subunit
Method: as §1, §2, §3

[7] = molecular target: T5, hRRM1 (human ribonucleotide reductase large subunit M1)
T5 chain: T1 sequence (P23921 1-792)

[8] = molecular target: T6, hRRM1 (human ribonucleotide reductase large subunit M1) (human, UniProt P23921 1-792); test: complex formation (method not described)
T6 construct: also called R1 subunit
T6 sequence: T1 sequence (P23921 1-792)

Molecule: FTLDADF [7-amino acid peptide (FTLDADF) at the C-terminus of RRM2]
- Suppression of human RNR activity [1]: dramatically suppress the human RNR activity

Molecule: C[S+](C)[O-] [DMSO]
- Small subunit selectivity of RNR inhibition (in words) [2]: inhibited p53R2-containing-RNR more potently than hRRM2-containing RNR

Molecule: NNC(N)=O [SC, semicarbazide, reference compound]
- IC50 ([3]; compound in dH2O): > 5000 µM
- IC50 [4]: > 2190 µM
- IC50 ([5]; compound in dH2O): > 5000 µM
- IC50 ([6]; compound in dH2O): > 5000 µM

Molecule: Cc1c2ccccc2c(C=NNC(=O)NO)c2ccccc12 [SB-HSC29]
- IC50 ([3]; compound in 2.5% DMSO): > 250 µM
- IC50 [4]: 4.4 µM
- IC50 ([5]; compound in 2.5% DMSO): > 250 µM
- IC50 ([6]; compound in 2.5% DMSO): > 250 µM

Molecule: O=C(NO)NN=Cc1cc(Cl)cc(Cl)c1O [SB-HSC2]
- IC50 ([3]; compound in 2.5% DMSO): 111 ± 6.64 µM
- IC50 [4]: 6.5 ± 0.6 µM
- IC50 ([5]; compound in 2.5% DMSO): 30.6 ± 1.62 µM
- Small subunit selectivity of RNR inhibition (in words) [2]: significantly more efficient in inactivating p53R2
- Selective index ([2]; compound in 2.5% DMSO): 3.62
- IC50 ([6]; compound in 2.5% DMSO): 70.7 µM

Molecule: O=C(NO)NN=Cc1ccc(O)c(O)c1O [SB-HSC21]
- IC50 ([3]; compound in 1% DMSO): 11.5 ± 0.63 µM
- IC50 [4]: 2.7 ± 0.6 µM
- IC50 ([5]; compound in 1% DMSO): 13.6 ± 0.7 µM
- Small subunit selectivity of RNR inhibition (in words) [2]: almost the same inhibitory activities on both small subunits
- Selective index ([2]; compound in 1% DMSO): 0.85
- IC50 ([6]; compound in 1% DMSO): 12.5 µM

Molecule: O=C(NO)NN=Cc1ccc([N+](=O)[O-])s1 [SB-HSC24]
- IC50 ([3]; compound in 2.5% DMSO): 52 ± 2.03 µM
- IC50 [4]: 10.6 ± 0.3 µM
- IC50 ([5]; compound in 2.5% DMSO): 11.5 ± 0.6 µM
- Small subunit selectivity of RNR inhibition (in words) [2]: significantly more efficient in inactivating p53R2
- Selective index ([2]; compound in 2.5% DMSO): 4.53
- IC50 ([6]; compound in 2.5% DMSO): 31.7 µM

B1: p53R2 (human ribonucleotide reductase small subunit p53R2) (protein)
chain: T3 sequence (Q7LG56 1-351)
- RNR activity of reconstituted RNR [7]: It was found it possessed RNR activity

B2: truncated form of the M2 subunit, lacking these 7 amino acids at the C-terminus (enzyme)
chain: MLSLRVPLAPITDPQQLQLSPLKGLSLVDKENTPPALSGTRVLASKTARRIFQEPTEPKTKAAAPGVEDEPLLRENPRRFVIFPIEYHDIWQMYKKAEASFWTAEEVDLSKDIQHWESLKPEERYFISHVLAFFAASDGIVNENLVERFSQEVQITEARCFYGFQIAMENIHSEMYSLLIDTYIKDPKEREFLFNAIETMPCVKKKADWALRWIGDKEATYGERVVAFAAVEGIFFSGSFASIFWLKKRGLMPGLTFSNELISRDEGLHCDFACLMFKHLVHKPSEERVREIIINAVRIEQEFLTEALPVKLIGMNCTLMKQYIEFVADRLMLELGFSKVFRVENPFDFMENISLEGKTNFFEKRVGEYQRMGVMSSPTENS
notes: also called truncated M2
- binding result [8]: no binding

B3: hRRM2 (human ribonucleotide reductase small subunit M2) (protein)
chain: T2 sequence (P31350 1-389)
- RNR activity of reconstituted RNR [7]: It was found it possessed RNR activity

From patent US20050260637A1, “Drug screening” (priority 2004, published 2005)
